Results published in patent US7563903B2, “Acylaminothiazole derivatives, their preparation and their therapeutic use” (Sanofi-Aventis, priority 2003, dated 2009).

Row | Compound | melting point [°C]
1 | CCC[C@H](NC(=O)C(O)C(C)(C)C)C(=O)Nc1ncc(-c2ccccc2COc2c(Cl)cccc2Cl)s1 (stereo partly drawn) [compound 41, (2S)—N-(5-{2-[(2,6-dichlorophenoxy)methyl]phenyl}-1,3-thiazol-2-yl)-2-[(2-hydroxy-3,3-dimethylbutanoyl)amino]pentanamide] | 126
2 | CCC[C@H](NC(=O)[C@@H](O)C(C)(C)C)C(=O)Nc1ncc(-c2ccccc2COc2c(F)cccc2F)s1 [compound 46, (2S)—N-(5-{2-[(2,6-difluorophenoxy)methyl]phenyl}-1,3-thiazol-2-yl)-2-{[(2S)-2-hydroxy-3,3-dimethylbutanoyl]amino}pentanamide] | 63.5
3 | CCC[C@H](NC(=O)[C@@H](O)C(C)C)C(=O)Nc1ncc(-c2ccc(OC)cc2COc2ccccc2)s1 [compound 49, (2S)-2-{[(2S)-2-hydroxy-3-methylbutanoyl]amino}-N-{5-[4-methoxy-2-(phenoxymethyl)phenyl]-1,3-thiazol-2-yl}pentanamide] | 159.5
4 | CCC[C@H](NC(=O)[C@@H](O)C(C)(C)C)C(=O)Nc1ncc(-c2ccc(OCC)cc2COc2ccccc2)s1 [compound 52, (2S)—N-{5-[4-ethoxy-2-(phenoxymethyl)phenyl]-1,3-thiazol-2-yl}-2-{[(2S)-2-hydroxy-3,3-dimethylbutanoyl]amino}pentanamide] | 81
5 | CCC[C@H](NC(=O)[C@@H](O)C(C)C)C(=O)Nc1ncc(-c2ccc(OCC)cc2COc2ccccc2)s1 [compound 53, (2S)—N-{5-[4-ethoxy-2-(phenoxymethyl)phenyl]-1,3-thiazol-2-yl}-2-{[(2S)-2-hydroxy-3-methylbutanoyl]amino}pentanamide] | 107.8
6 | CCC[C@H](NC(=O)[C@@H](O)C(C)(C)C)C(=O)Nc1ncc(-c2cc(F)ccc2COc2ccccc2)s1 [compound 54, (2S)—N-{5-[5-fluoro-2-(phenoxymethyl)phenyl]-1,3-thiazol-2-yl}-2-{[(2S)-2-hydroxy-3,3-dimethylbutanoyl]amino}pentanamide] | 105.4
7 | CCC[C@H](NC(=O)[C@@H](O)C(C)C)C(=O)Nc1ncc(-c2cc(F)ccc2COc2ccccc2)s1 [compound 56, (2S)—N-{5-[5-fluoro-2-(phenoxymethyl)phenyl]-1,3-thiazol-2-yl}-2-{[(2S)-2-hydroxy-3-methylbutanoyl]amino}pentanamide] | 61.4
8 | CCC[C@H](NC(=O)[C@@H](O)C(C)(C)C)C(=O)Nc1ncc(-c2ccc(C)cc2COc2ccccc2)s1 [compound 59, (2S)-2-{[(2S)-2-hydroxy-3,3-dimethylbutanoyl]amino}-N-{5-[4methyl-2-(phenoxymethyl)phenyl]-1,3-thiazol-2-yl}pentanamide] | 92.6
9 | CCC[C@H](NC(=O)[C@@H](O)C(C)(C)C)C(=O)Nc1ncc(-c2ccccc2COc2cccc(F)c2)s1 [compound 62, (2S)—N-(5-{2-[(3-fluorophenoxy)methyl]phenyl}-1,3-thiazol-2-yl)-2-{[(2S)-2-hydroxy-3,3-dimethylbutanoyl]amino}pentanamide] | 160.2
10 | CCC[C@H](NC(=O)[C@@H](O)C(C)(C)C)C(=O)Nc1ncc(-c2cc(C)ccc2COc2ccccc2)s1 [compound 64, (2S)-2-{[(2S)-2-hydroxy-3,3-dimethylbutanoyl]amino}-N-{5-[5-methyl-2-(phenoxymethyl)phenyl]-1,3-thiazol-2-yl}pentanamide] | 170
11 | CCC[C@H](NC(=O)[C@@H](O)C(C)C)C(=O)Nc1ncc(-c2ccc(C)cc2COc2ccccc2)s1 [compound 65, (2S)-2-{[(2S)-2-hydroxy-3-methylbutanoyl]amino}-N-{5-[4-methyl-2-(phenoxymethyl)phenyl]-1,3-thiazol-2-yl}pentanamide] | 135.5
12 | CCC[C@H](NC(=O)[C@@H](O)C(C)(C)C)C(=O)Nc1ncc(-c2ccccc2COc2cc(C)c(C)cc2Cl)s1 [compound 71, (2S)—N-(5-{2-[(2-chloro-4,5-dimethylphenoxy)methyl]phenyl}-1,3-thiazol-2-yl)-2-{[(2S)-2-hydroxy-3,3-dimethylbutanoyl]amino}pentanamide] | 85
13 | CCC[C@H](NC(=O)[C@@H](O)C(C)(C)C)C(=O)Nc1ncc(-c2ccccc2COc2ccc(Cl)c(C)c2)s1 [compound 72, (2S)—N-(5-{2-[(4-chloro-3-methylphenoxy)methyl]phenyl}-1,3-thiazol-2-yl)-2-{[(2S)-2-hydroxy-3,3-dimethylbutanoyl]amino}pentanamide] | 83.4
14 | CCC[C@H](NC(=O)[C@@H](O)C(C)(C)C)C(=O)Nc1ncc(-c2ccccc2COc2cccc(Cl)c2Cl)s1 [compound 73, (2S)—N-(5-{2-[(2,3-dichlorophenoxy)methyl]phenyl}-1,3-thiazol-2-yl)-2-{[(2S)-2-hydroxy-3,3-dimethylbutanoyl]amino}pentanamide] | 71.1

Further lines, results first:

Row | melting point [°C] | Compound
15 | 79 | CCC[C@H](NC(=O)[C@@H](O)C(C)(C)C)C(=O)Nc1ncc(-c2ccc(OC)cc2COC(C)C)s1 [compound 44, (2S)-2-{[(2S)-2-hydroxy-3,3-dimethylbutanoyl]amino}-N-{5-[2-(isopropoxymethyl)-4-methoxyphenyl]-1,3-thiazol-2-yl}pentanamide]
16 | 93.5 | CCC[C@H](NC(=O)[C@@H](O)C(C)(C)C)C(=O)Nc1ncc(-c2ccc(Cl)cc2COc2ccccc2)s1 [compound 47, (2S)—N-{5-[4-chloro-2-(phenoxymethyl)phenyl]-1,3-thiazol-2-yl}-2-{[(2S)-2-hydroxy-3,3-dimethylbutanoyl]amino}pentanamide]
17 | 75.5 | CCC[C@H](NC(=O)[C@@H](O)C(C)(C)C)C(=O)Nc1ncc(-c2ccc(F)cc2COc2ccccc2)s1 [compound 48, (2S)—N-{5-[4-fluoro-2-(phenoxymethyl)phenyl]-1,3-thiazol-2-yl}-2-{[(2S)-2-hydroxy-3,3-dimethylbutanoyl]amino}pentanamide]
18 | 158 | CCC[C@H](NC(=O)[C@@H](O)CC(C)C)C(=O)Nc1ncc(-c2ccccc2COC2CCCCC2)s1 [compound 51, (2S)—N-((1S)-1-{[(5-{2-[(cyclohexyloxy)methyl]phenyl}-1,3-thiazol-2-yl)amino]carbonyl}butyl)-2-hydroxy-4-methylpentanamide]
19 | 120.7 | CCC[C@H](NC(=O)[C@@H](O)C(C)(C)C)C(=O)Nc1ncc(-c2cc(Cl)ccc2COc2ccccc2)s1 [compound 55, (2S)—N-{5-[5-chloro-2-(phenoxymethyl)phenyl]-1,3-thiazol-2-yl}-2-{[(2S)-2-hydroxy-3,3-dimethylbutanoyl]amino}pentanamide]
20 | 88 | CCC[C@H](NC(=O)[C@@H](O)C(C)(C)C)C(=O)Nc1ncc(-c2ccccc2COC2CCCCC2)s1 [compound 57, (2S)—N-(5-{2-[(cyclohexyloxy)methyl]phenyl}-1,3-thiazol-2-yl)-2-{[(2S)-2-hydroxy-3,3-dimethylbutanoyl]amino}pentanamide]
21 | 118.6 | C[C@H](NC(=O)[C@@H](O)C(C)(C)C)C(=O)Nc1ncc(-c2ccccc2COc2ccccc2)s1 [compound 58, (2S)-2-hydroxy-3,3-dimethyl-N-[(1S)-1-methyl-2-oxo-2-({5-[2-(phenoxymethyl)phenyl]-1,3-thiazol-2-yl}amino)ethyl]butanamide]
22 | 125.5 | CCC[C@H](NC(=O)[C@@H](O)C(C)C)C(=O)Nc1ncc(-c2cc(C)ccc2COc2ccccc2)s1 [compound 60, (2S)-2-{[(2S)-2-hydroxy-3-methylbutanoyl]amino}-N-{5-[5-methyl-2-(phenoxymethyl)phenyl]-1,3-thiazol-2-yl}pentanamide]
23 | 162.6 | CCC[C@H](NC(=O)[C@@H](O)C(C)(C)C)C(=O)Nc1ncc(-c2ccccc2COc2cccc(C#N)c2)s1 [compound 61, (2S)—N-(5-{2-[(3-cyanophenoxy)methyl]phenyl}-1,3-thiazol-2-yl)-2-{[(2S)-2-hydroxy-3,3-dimethylbutanoyl]amino}pentanamide]
24 | 130.7 | CCC[C@H](NC(=O)[C@@H](O)C(C)C)C(=O)Nc1ncc(-c2ccccc2COc2cccc(F)c2)s1 [compound 63, (2S)—N-(5-{2-[(3-fluorophenoxy)methyl]phenyl}-1,3-thiazol-2-yl)-2-{[(2S)-2-hydroxy-3-methylbutanoyl]amino}pentanamide]
25 | 104.8 | C[C@H](NC(=O)[C@@H](O)C(C)(C)C)C(=O)Nc1ncc(-c2ccccc2COC2CCCCC2)s1 [compound 66, (2S)—N-{(1S)-2-[(5-{2-[(cyclohexyloxy)methyl]phenyl}-1,3-thiazol-2-yl)amino]-1-methyl-2-oxoethyl}-2-hydroxy-3,3-dimethylbutanamide]
26 | 82 | CCC[C@H](NC(=O)[C@@H](O)C(C)(C)C)C(=O)Nc1ncc(-c2ccccc2COc2cc(C)ccc2Cl)s1 [compound 67, (2S)—N-(5-{2-[(2-chloro-5-methylphenoxy)methyl]phenyl}-1,3-thiazol-2-yl)-2-{[(2S)-2-hydroxy-3,3-dimethylbutanoyl]amino}pentanamide]
27 | 80.6 | CCC[C@H](NC(=O)[C@@H](O)C(C)(C)C)C(=O)Nc1ncc(-c2ccccc2COc2cccc(C)c2)s1 [compound 68, (2S)-2-{[(2S)-2-hydroxy-3,3-dimethylbutanoyl]amino}-N-(5-{2-[(3-methylphenoxy)methyl]phenyl}-1,3-thiazol-2-yl)pentanamide]
28 | 99 | CCC[C@H](NC(=O)[C@@H](O)C(C)(C)C)C(=O)Nc1ncc(-c2ccccc2COc2ccccc2C#N)s1 [compound 69, (2S)—N-(5-{2-[(2-cyanophenoxy)methyl]phenyl}-1,3-thiazol-2-yl)-2-{[(2S)-2-hydroxy-3,3-dimethylbutanoyl]amino}pentanamide]
29 | 82 | CCC[C@H](NC(=O)[C@@H](O)C(C)(C)C)C(=O)Nc1ncc(-c2ccccc2COc2cccc(F)c2F)s1 [compound 74, (2S)—N-(5-{2-[(2,3-difluorophenoxy)methyl]phenyl}-1,3-thiazol-2-yl)-2-{[(2S)-2-hydroxy-3,3-dimethylbutanoyl]amino}pentanamide]
